Data reported in patent US20240358693A1, “METHODS OF TREATING PAIN” (Aisa Pharma, Inc., priority 2023, published 2024).

Test system: participants with SSc-RP
Test: Scleroderma Health Assessment Questionnaire (SHAQ): disability indices and visual analog scales
Assay type: in vivo, human
Settings: Part A
Text: The standard, validated, patient reported outcome measures tool for SSc patients, the Scleroderma Health Assessment Questionnaire (SHAQ), will be used to assess the participant qualify of life. Details are attached in the Appendix. The participant quality of life will be scored, and a disability index calculated for each questionnaire completed by the patient at Screening and each in-clinic visit. The absolute change in participant quality of life from baseline to the end of each dosing period will be calculated similar to frequency data as before.
The SHAQ includes a Raynaud's VAS, which will be reported at screening and each in-clinic visit. The absolute change in Raynaud-VAS, assessed by the participants response to the SHAQ question ‘In the past 7 days, how much have your Raynaud's interfered with your daily activities?’ at baseline and the end of each dosing period will be calculated similar to frequency data as before.
The SHAQ is used to calculate a Disability Index to assess the participant qualify of life. The eight categories assessed by the Disability Index are 1) dressing and grooming, 2) arising, 3) eating, 4) walking, 5) hygiene, 6) reach, 7) grip, and 8) common daily activities. For each of these categories, patients report the amount of difficulty they have in performing two or three specific activities.
There are four possible responses for the Disability Index questions: • Without any difficulty=0 • With some difficulty=1 • With much difficulty=2 • Unable to do=3. • The highest score reported by the patient for any component question of the eight categories determines the score for that category. • If a component question is left blank or the response is too ambiguous to assign a score, then the score for that category is determined by the remaining completed question(s). • If all component questions are blank or if more than one answer is given, then follow up with the respondent is required. • If the respondent's mark is between the response columns, then move it to the closest one. If it's directly between the two, move it to the higher one.
Each of the disability items on the SHAQ has a companion aids/devices variable that is used to record what type(s) of assistance, if any, the participant uses for his/her usual activities. These variables (see below) are coded as follows: • 0=No assistance is needed. • 1=A special device is used by the patient in his/her usual activities. • 2=The patient usually needs help from another person. • 3=The patient usually needs BOTH a special device AND help from another person.
The scoring variables and scoring rules permit the computation of two disability indices, the Standard Disability Index and the Alternative Disability Index.
This question results in a new set of category scores that are computed by adjusting the score for each category, if necessary, based on the patient's use of an aid or device or assistance for that category. If either devices and/or help from another person are checked for a category, the score is set to “2”, unless the score is already “3” (i.e., scores of “0” or “1” are increased to “2”). For example, if the highest score for the dressing category is “1”, and the patient says they use a device for dressing, the computed category score would be “2”. The sum of the computed categories scores is then calculated and divided by the number of categories answered. This gives a score in the 0 to 3 range.
The aid and device variables are not used to calculate the alternative disability index; it is calculated by adding the scores for each of the categories and dividing by the number of categories answered. This gives a score in the 0 to 3 range.
The standard, validated, patient reported outcome measures tool for SSc patients, the SHAQ, was collected at the time points specified in the study schedules (FIG. 2 and FIGS. 4A and 4B) to assess the participant's quality of life. The SHAQ included a Raynaud's VAS that will also be reported separately.

[1] = Modified ITT, dose Cilnidipine 20 mg, or 20 mg + Tadalafil 5 mg
[2] = PP Population, sensitivity analysis, Pooled Cilnidipine 10 mg and Cilnidipine 10 mg + Tadalafil 5 mg
[3] = PP Population, sensitivity analysis, Pooled Cilnidipine 20 mg and Cilnidipine 20 mg + Tadalafil 5 mg
[4] = PP Population, sensitivity analysis, cilnidipine 10 mg and/or tadalafil 5 mg as labelled

`COCCOC(=O)C1=C(C)NC(C)=C(C(=O)OC/C=C/c2ccccc2)C1c1cccc([N+](=O)[O-])c1` (stereo not shown) [Cilnidipine, cilnidipine] was tested, and the “SHAQ Finger Ulcers, In Clinic Visit (Day 12), Mean” value [1] was 0.867, the “SHAQ Finger Ulcers, In Clinic Visit (Day 12), Median” value [1] was 0.700 and the “SHAQ Standard disability index, Baseline, Mean” value [1] was 0.250. For the same compound, the “SHAQ Standard disability index, Baseline, Median” value [1] was 0.375, the “SHAQ Standard disability index, In Clinic Visit (Day 12), Mean” value [1] was 0.125 and the “SHAQ Standard disability index, In Clinic Visit (Day 12), Median” value [1] was 0.125. For the same compound, the “SHAQ Visual Analog Scale-Breathing Problems, Baseline, Mean” value [1] was 1.133, the “SHAQ Visual Analog Scale-Breathing Problems, Baseline, Median” value [1] was 1.200 and the “SHAQ Visual Analog Scale-Breathing Problems, In Clinic Visit (Day 12), Mean” value [1] was 0.300. For the same compound, the “SHAQ Visual Analog Scale-Breathing Problems, In Clinic Visit (Day 12), Median” value [1] was 0.400, the “SHAQ Visual Analog Scale-Intestinal Problems, Baseline, Mean” value [1] was 0.833 and the “SHAQ Visual Analog Scale-Intestinal Problems, Baseline, Median” value [1] was 1.000. For the same compound, the “SHAQ Visual Analog Scale-Intestinal Problems, In Clinic Visit (Day 12), Mean” value [1] was 1.133, the “SHAQ Visual Analog Scale-Intestinal Problems, In Clinic Visit (Day 12), Median” value [1] was 1.300 and the “SHAQ Visual Analog Scale-Pain, Baseline, Mean” value [1] was 2.167. For the same compound, the “SHAQ Visual Analog Scale-Pain, Baseline, Median” value [1] was 1.500, the “SHAQ Visual Analog Scale-Pain, In Clinic Visit (Day 12), Mean” value [1] was 1.067 and the “SHAQ Visual Analog Scale-Pain, In Clinic Visit (Day 12), Median” value [1] was 0.700. The “SHAQ Visual Analog Scale-Raynaud's, Baseline, Mean” value [1] was 2.300, the “SHAQ Visual Analog Scale-Raynaud's, Baseline, Median” value [1] was 2.500 and the “SHAQ Visual Analog Scale-Raynaud's, In Clinic Visit (Day 12), Mean” value [1] was 1.033. For the same compound, the “SHAQ Visual Analog Scale-Raynaud's, In Clinic Visit (Day 12), Median” value [1] was 1.100, the “SHAQ alternative disability index, Baseline, Mean” value [1] was 0.208 and the “SHAQ alternative disability index, Baseline, Median” value [1] was 0.250. The “SHAQ alternative disability index, In Clinic Visit (Day 12), Mean” value [1] was 0.125, the “SHAQ alternative disability index, In Clinic Visit (Day 12), Median” value [1] was 0.125 and the “SHAQ Alternative Disability Index: Baseline, Mean” value [2] was 0.458. For the same compound, the “SHAQ Alternative Disability Index: Baseline, Median” value [2] was 0.250, the “SHAQ Alternative Disability Index: Change from Baseline (Day 12), Mean” value [2] was 0.021 and the “SHAQ Alternative Disability Index: Change from Baseline (Day 12), Median” value [2] was 0.000. The “SHAQ Alternative Disability Index: In-Clinic Visit (Day 12), Mean” value [2] was 0.479, the “SHAQ Alternative Disability Index: In-Clinic Visit (Day 12), Median” value [2] was 0.250 and the “SHAQ Alternative Disability Index: Percent Change from Baseline (Day 12), Mean” value [2] was 28.11%. For the same compound, the “SHAQ Alternative Disability Index: Percent Change from Baseline (Day 12), Median” value [2] was −10.00%, the “SHAQ Alternative Disability Index: Baseline, Mean” value [3] was 0.453 and the “SHAQ Alternative Disability Index: Baseline, Median” value [3] was 0.250. For the same compound, the “SHAQ Alternative Disability Index: Change from Baseline (Day 12), Mean” value [3] was −0.036, the “SHAQ Alternative Disability Index: Change from Baseline (Day 12), Median” value [3] was −0.063 and the “SHAQ Alternative Disability Index: In-Clinic Visit (Day 12), Mean” value [3] was 0.417. The “SHAQ Alternative Disability Index: In-Clinic Visit (Day 12), Median” value [3] was 0.250, the “SHAQ Alternative Disability Index: Percent Change from Baseline (Day 12), Mean” value [3] was 13.40% and the “SHAQ Alternative Disability Index: Percent Change from Baseline (Day 12), Median” value [3] was −18.13%. For the same compound, the “SHAQ Visual Analogue Scale - Breathing Problems: Baseline, Mean” value [4] was 1.875, the “SHAQ Visual Analogue Scale - Breathing Problems: Baseline, Median” value [4] was 0.000 and the “SHAQ Visual Analogue Scale - Breathing Problems: Change from Baseline (Day 12), Mean” value [4] was −0.300. The “SHAQ Visual Analogue Scale - Breathing Problems: Change from Baseline (Day 12), Median” value [4] was 0.000, the “SHAQ Visual Analogue Scale - Breathing Problems: In-Clinic Visit (Day 12), Mean” value [4] was 1.575 and the “SHAQ Visual Analogue Scale - Breathing Problems: In-Clinic Visit (Day 12), Median” value [4] was 0.000. For the same compound, the “SHAQ Visual Analogue Scale - Breathing Problems: Percent Change from Baseline (Day 12), Mean” value [4] was −16.00%, the “SHAQ Visual Analogue Scale - Breathing Problems: Percent Change from Baseline (Day 12), Median” value [4] was −16.00% and the “SHAQ Visual Analogue Scale - Finger Ulcers: Baseline, Mean” value [4] was 0.700. The “SHAQ Visual Analogue Scale - Finger Ulcers: Baseline, Median” value [4] was 0.500, the “SHAQ Visual Analogue Scale - Finger Ulcers: Change from Baseline (Day 12), Mean” value [4] was −0.425 and the “SHAQ Visual Analogue Scale - Finger Ulcers: Change from Baseline (Day 12), Median” value [4] was −0.350. For the same compound, the “SHAQ Visual Analogue Scale - Finger Ulcers: In-Clinic Visit (Day 12), Mean” value [4] was 0.275, the “SHAQ Visual Analogue Scale - Finger Ulcers: In-Clinic Visit (Day 12), Median” value [4] was 0.000 and the “SHAQ Visual Analogue Scale - Finger Ulcers: Percent Change from Baseline (Day 12), Mean” value [4] was −69.44%. For the same compound, the “SHAQ Visual Analogue Scale - Finger Ulcers: Percent Change from Baseline (Day 12), Median” value [4] was −69.44%, the “SHAQ Visual Analogue Scale - Intestinal Problems: Baseline, Mean” value [4] was 2.975 and the “SHAQ Visual Analogue Scale - Intestinal Problems: Baseline, Median” value [4] was 2.550. The “SHAQ Visual Analogue Scale - Intestinal Problems: Change from Baseline (Day 12), Mean” value [4] was −1.875.
